ChEMBL document CHEMBL3885881, “DrugMatrix”

Organism: Rattus norvegicus
Assay: DrugMatrix - Regimen: Daily Repeat
Type: toxicity, organism-based, Sprague-Dawley
Design: regimen Daily Repeat, gender Male, age 6-8 weeks
Conditions: in vivo, iv, vehicle 100 % SALINE; for ABSOLUTE BASOPHIL / ABSOLUTE EOSINOPHIL / ABSOLUTE LYMPHOCYTE / ABSOLUTE MONOCYTE / ABSOLUTE SEGMENTED NEUTROPHIL / BASOPHIL / EOSINOPHIL / ERYTHROCYTE COUNT / HEMATOCRIT / HEMOGLOBIN / LEUKOCYTE COUNT / LYMPHOCYTE / MEAN CORPUSCULAR HEMOGLOBIN / MEAN CORPUSCULAR HEMOGLOBIN CONCENTRATION / MEAN CORPUSCULAR VOLUME / MONOCYTE / NEUTROPHIL / NUCLEATED RED BLOOD CELLS / PLATELET COUNT: tissue Blood; for ALANINE AMINOTRANSFERASE / ALBUMIN / ALKALINE PHOSPHATASE / ASPARTATE AMINOTRANSFERASE / BLOOD UREA NITROGEN / CARBON DIOXIDE / CHLORIDE / CHOLESTEROL / CREATINE PHOSPHOKINASE / CREATININE / GLUCOSE / LACTATE DEHYDROGENASE / LIPASE / PHOSPHORUS / POTASSIUM / SODIUM / TOTAL BILIRUBIN / TOTAL PROTEIN / URIC ACID: tissue Plasma
[1] = 0 mg/kg, 72 h, dose level Control, time 3 day
[2] = 0 mg/kg, 120 h, dose level Control, time 5 day
[3] = 0.5 mg/kg, 72 h, dose level Low, time 3 day

With `CO[C@@]12[C@H](COC(N)=O)C3=C(C(=O)C(C)=C(N)C3=O)N1C[C@@H]1N[C@@H]12` [MITOMYCIN] the “ABSOLUTE BASOPHIL” value [1] was 0 CELLS/uL, the “ABSOLUTE EOSINOPHIL” value [1] was 0 CELLS/uL and the “ABSOLUTE LYMPHOCYTE” value [1] was 7026.17 CELLS/uL. For the same molecule, the “ABSOLUTE MONOCYTE” value [1] was 44.33 CELLS/uL, the “ABSOLUTE SEGMENTED NEUTROPHIL” value [1] was 379.5 CELLS/uL and the BASOPHIL [1] was 0%. The EOSINOPHIL [1] was 0%, the “ERYTHROCYTE COUNT” value [1] was 5.49 x10E6/uL and the HEMATOCRIT [1] was 33.67%. For the same molecule, the HEMOGLOBIN [1] was 13.17 G/DL, the “LEUKOCYTE COUNT” value [1] was 7.45 x10E3/uL and the LYMPHOCYTE [1] was 94%. The “MEAN CORPUSCULAR HEMOGLOBIN” value [1] was 24.03 pg, the “MEAN CORPUSCULAR HEMOGLOBIN CONCENTRATION” value [1] was 39.15 G/DL and the “MEAN CORPUSCULAR VOLUME” value [1] was 61.4 fL. For the same molecule, the MONOCYTE [1] was 0.67%, the NEUTROPHIL [1] was 5.33% and the “NUCLEATED RED BLOOD CELLS” value [1] was 0.17 /100WBC. For the same molecule, the “PLATELET COUNT” value [1] was 1062.5 x10E3/uL, the “ALANINE AMINOTRANSFERASE” value [1] was 53.17 u/L and the ALBUMIN [1] was 4.33 G/DL. For the same molecule, the “ALKALINE PHOSPHATASE” value [1] was 339.83 u/L, the “ASPARTATE AMINOTRANSFERASE” value [1] was 83.33 u/L and the “BLOOD UREA NITROGEN” value [1] was 16 mg/dL. The “CARBON DIOXIDE” value [1] was 32.5 mmol/L, the CHLORIDE [1] was 98 MEQ/L and the CHOLESTEROL [1] was 74.67 mg/dL. The “CREATINE PHOSPHOKINASE” value [1] was 284 u/L, the CREATININE [1] was 0.2 mg/dL and the GLUCOSE [1] was 128.67 mg/dL. For the same molecule, the “LACTATE DEHYDROGENASE” value [1] was 110.33 u/L, the LIPASE [1] was 9 u/L and the PHOSPHORUS [1] was 11.73 mg/dL. For the same molecule, the POTASSIUM [1] was 6.34 MEQ/L, the SODIUM [1] was 143.12 MEQ/L and the “TOTAL BILIRUBIN” value [1] was 0.18 mg/dL. The “TOTAL PROTEIN” value [1] was 6.2 G/DL, the “URIC ACID” value [1] was 1.28 mg/dL and the “ABSOLUTE BASOPHIL” value [2] was 0 CELLS/uL. For the same molecule, the “ABSOLUTE EOSINOPHIL” value [2] was 26.67 CELLS/uL, the “ABSOLUTE LYMPHOCYTE” value [2] was 8334.17 CELLS/uL and the “ABSOLUTE MONOCYTE” value [2] was 29.5 CELLS/uL. The BASOPHIL [2] was 0%, the EOSINOPHIL [2] was 0.33% and the “ERYTHROCYTE COUNT” value [2] was 5.44 x10E6/uL. For the same molecule, the HEMATOCRIT [2] was 33.77%, the HEMOGLOBIN [2] was 13.05 G/DL and the “LEUKOCYTE COUNT” value [2] was 8.98 x10E3/uL. For the same molecule, the LYMPHOCYTE [2] was 92.33%, the “MEAN CORPUSCULAR HEMOGLOBIN” value [2] was 24 pg and the “MEAN CORPUSCULAR HEMOGLOBIN CONCENTRATION” value [2] was 38.67 G/DL. For the same molecule, the “MEAN CORPUSCULAR VOLUME” value [2] was 62.05 fL, the MONOCYTE [2] was 0.33% and the NEUTROPHIL [2] was 7%. The “NUCLEATED RED BLOOD CELLS” value [2] was 0 /100WBC, the “PLATELET COUNT” value [2] was 987 x10E3/uL and the “ALANINE AMINOTRANSFERASE” value [2] was 43.5 u/L. The ALBUMIN [2] was 4.08 G/DL, the “ALKALINE PHOSPHATASE” value [2] was 310.17 u/L and the “ASPARTATE AMINOTRANSFERASE” value [2] was 76.67 u/L. The “BLOOD UREA NITROGEN” value [2] was 17 mg/dL, the “CARBON DIOXIDE” value [2] was 30.67 mmol/L and the CHLORIDE [2] was 100.33 MEQ/L. The CHOLESTEROL [2] was 69.33 mg/dL, the “CREATINE PHOSPHOKINASE” value [2] was 218.67 u/L and the CREATININE [2] was 0.22 mg/dL. For the same molecule, the GLUCOSE [2] was 155.17 mg/dL, the “LACTATE DEHYDROGENASE” value [2] was 114.67 u/L and the LIPASE [2] was 10.67 u/L. For the same molecule, the PHOSPHORUS [2] was 11.2 mg/dL, the POTASSIUM [2] was 5.5 MEQ/L and the SODIUM [2] was 144.12 MEQ/L. For the same molecule, the “TOTAL BILIRUBIN” value [2] was 0.18 mg/dL, the “TOTAL PROTEIN” value [2] was 5.97 G/DL and the “URIC ACID” value [2] was 0.88 mg/dL. The “ABSOLUTE BASOPHIL” value [3] was 0 CELLS/uL, the “ABSOLUTE EOSINOPHIL” value [3] was 0 CELLS/uL and the “ABSOLUTE LYMPHOCYTE” value [3] was 8042 CELLS/uL. For the same molecule, the “ABSOLUTE MONOCYTE” value [3] was 56.33 CELLS/uL, the “ABSOLUTE SEGMENTED NEUTROPHIL” value [3] was 601.67 CELLS/uL and the BASOPHIL [3] was 0%. For the same molecule, the EOSINOPHIL [3] was 0%, the “ERYTHROCYTE COUNT” value [3] was 5.65 x10E6/uL and the HEMATOCRIT [3] was 34.47%. The HEMOGLOBIN [3] was 13.63 G/DL, the “LEUKOCYTE COUNT” value [3] was 8.7 x10E3/uL and the LYMPHOCYTE [3] was 92.67%. The “MEAN CORPUSCULAR HEMOGLOBIN” value [3] was 24.13 pg, the “MEAN CORPUSCULAR HEMOGLOBIN CONCENTRATION” value [3] was 39.57 G/DL and the “MEAN CORPUSCULAR VOLUME” value [3] was 61.07 fL. For the same molecule, the MONOCYTE [3] was 0.67%, the NEUTROPHIL [3] was 6.67% and the “NUCLEATED RED BLOOD CELLS” value [3] was 0 /100WBC. For the same molecule, the “PLATELET COUNT” value [3] was 888.67 x10E3/uL, the “ALANINE AMINOTRANSFERASE” value [3] was 51.67 u/L and the ALBUMIN [3] was 4.27 G/DL. The “ALKALINE PHOSPHATASE” value [3] was 324.67 u/L, the “ASPARTATE AMINOTRANSFERASE” value [3] was 87 u/L and the “BLOOD UREA NITROGEN” value [3] was 14.33 mg/dL. For the same molecule, the “CARBON DIOXIDE” value [3] was 31 mmol/L, the CHLORIDE [3] was 99 MEQ/L and the CHOLESTEROL [3] was 72 mg/dL. The “CREATINE PHOSPHOKINASE” value [3] was 285 u/L, the CREATININE [3] was 0.26 mg/dL and the GLUCOSE [3] was 136.67 mg/dL. The “LACTATE DEHYDROGENASE” value [3] was 100.67 u/L, the LIPASE [3] was 11.67 u/L and the PHOSPHORUS [3] was 10.87 mg/dL. The POTASSIUM [3] was 5.62 MEQ/L, the SODIUM [3] was 144.1 MEQ/L and the “TOTAL BILIRUBIN” value [3] was 0.1 mg/dL. The “TOTAL PROTEIN” value [3] was 5.9 G/DL and the “URIC ACID” value [3] was 0.63 mg/dL.
